Data from ChEMBL document CHEMBL5291721, “A preclinical secondary pharmacology resource illuminates target-adverse drug reaction associations of marketed drugs” (Nat Commun, 2023).

What was measured:
Androgen receptor = target: T1, Androgen receptor (Rattus norvegicus, UniProt P15207); assay type: functional
T1 sequence (P15207 whole entry): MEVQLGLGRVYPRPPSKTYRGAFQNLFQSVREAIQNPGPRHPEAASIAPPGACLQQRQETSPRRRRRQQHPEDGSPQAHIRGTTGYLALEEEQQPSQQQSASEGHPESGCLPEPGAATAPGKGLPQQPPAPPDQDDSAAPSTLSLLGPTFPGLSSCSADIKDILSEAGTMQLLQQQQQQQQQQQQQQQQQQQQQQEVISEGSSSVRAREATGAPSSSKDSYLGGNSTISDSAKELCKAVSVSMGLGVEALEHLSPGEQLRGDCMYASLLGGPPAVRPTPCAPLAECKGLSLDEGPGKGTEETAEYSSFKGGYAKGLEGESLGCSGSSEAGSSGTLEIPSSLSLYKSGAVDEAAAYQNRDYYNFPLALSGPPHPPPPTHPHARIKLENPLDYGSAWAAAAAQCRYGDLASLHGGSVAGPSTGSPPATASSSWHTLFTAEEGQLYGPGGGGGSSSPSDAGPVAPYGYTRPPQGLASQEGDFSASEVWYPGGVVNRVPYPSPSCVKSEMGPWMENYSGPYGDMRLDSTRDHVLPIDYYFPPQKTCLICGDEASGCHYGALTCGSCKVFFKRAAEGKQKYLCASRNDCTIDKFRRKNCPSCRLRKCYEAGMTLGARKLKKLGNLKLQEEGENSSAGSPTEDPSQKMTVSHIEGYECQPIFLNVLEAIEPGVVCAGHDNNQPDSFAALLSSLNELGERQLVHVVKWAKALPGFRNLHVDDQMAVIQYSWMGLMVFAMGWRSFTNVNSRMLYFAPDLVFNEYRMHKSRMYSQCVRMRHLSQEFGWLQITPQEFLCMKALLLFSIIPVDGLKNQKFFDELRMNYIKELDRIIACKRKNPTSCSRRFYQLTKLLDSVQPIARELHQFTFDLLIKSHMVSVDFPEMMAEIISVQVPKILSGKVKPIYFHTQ

Thromboxane A2 receptor = target: T2, Thromboxane A2 receptor (Homo sapiens, UniProt P21731); assay type: functional, cell-based
T2 sequence (P21731 whole entry): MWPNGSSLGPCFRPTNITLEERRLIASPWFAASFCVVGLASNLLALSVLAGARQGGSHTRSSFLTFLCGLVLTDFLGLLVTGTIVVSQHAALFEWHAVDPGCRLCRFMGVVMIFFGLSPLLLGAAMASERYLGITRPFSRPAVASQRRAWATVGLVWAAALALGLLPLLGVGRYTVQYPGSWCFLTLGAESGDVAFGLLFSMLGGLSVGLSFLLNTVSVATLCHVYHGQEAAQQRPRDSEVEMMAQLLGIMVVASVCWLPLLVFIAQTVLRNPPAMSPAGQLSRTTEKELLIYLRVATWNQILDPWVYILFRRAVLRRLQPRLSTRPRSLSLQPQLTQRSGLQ

[1] = target: T3, Peroxisome proliferator-activated receptor gamma (Homo sapiens, UniProt P37231); assay type: functional
T3 sequence (P37231 whole entry): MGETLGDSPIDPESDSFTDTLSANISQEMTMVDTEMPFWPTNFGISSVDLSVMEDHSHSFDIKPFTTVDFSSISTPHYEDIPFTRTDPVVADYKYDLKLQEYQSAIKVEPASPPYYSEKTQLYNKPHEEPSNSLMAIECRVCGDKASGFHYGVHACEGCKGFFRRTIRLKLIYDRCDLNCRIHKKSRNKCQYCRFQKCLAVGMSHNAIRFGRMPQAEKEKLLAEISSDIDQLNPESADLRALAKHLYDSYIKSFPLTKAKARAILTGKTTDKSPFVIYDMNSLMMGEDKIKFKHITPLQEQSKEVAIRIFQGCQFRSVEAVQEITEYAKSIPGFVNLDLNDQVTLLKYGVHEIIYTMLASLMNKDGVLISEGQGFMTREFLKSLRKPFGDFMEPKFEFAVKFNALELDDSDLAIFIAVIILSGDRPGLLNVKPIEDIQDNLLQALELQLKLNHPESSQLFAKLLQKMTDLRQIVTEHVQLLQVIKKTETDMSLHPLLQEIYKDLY

[2] = target: Hydroxycarboxylic acid receptor 2 (Homo sapiens, UniProt Q8TDS4)
Note: assay procedure not described here.

Sequence of Hydroxycarboxylic acid receptor 2 (Q8TDS4 whole entry): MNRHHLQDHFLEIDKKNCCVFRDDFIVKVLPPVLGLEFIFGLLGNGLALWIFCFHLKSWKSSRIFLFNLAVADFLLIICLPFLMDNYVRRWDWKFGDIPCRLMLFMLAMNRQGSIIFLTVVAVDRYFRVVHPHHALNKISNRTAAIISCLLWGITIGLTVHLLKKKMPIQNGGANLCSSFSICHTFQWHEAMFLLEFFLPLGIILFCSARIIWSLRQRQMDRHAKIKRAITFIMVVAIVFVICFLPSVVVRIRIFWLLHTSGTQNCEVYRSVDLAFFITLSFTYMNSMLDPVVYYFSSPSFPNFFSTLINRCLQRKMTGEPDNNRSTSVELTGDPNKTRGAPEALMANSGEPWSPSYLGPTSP

CCCC(=O)N1CCCN(c2nc(N)c3cc(OC)c(OC)cc3n2)CC1 [BUNAZOSIN]
AC50 (Androgen receptor): > 30 µM

O=C(Nc1ccccc1)OCC(CN1CCCCC1)OC(=O)Nc1ccccc1 (centres undefined) [DIPERODON]
AC50 (Thromboxane A2 receptor): > 30 µM

CC(=O)O[C@]1(C(C)=O)CC[C@H]2[C@@H]3C[C@H](C)C4=CC(=O)CC[C@]4(C)[C@H]3CC[C@@]21C [MEDROXYPROGESTERONE ACETATE]
AC50 [1]: > 30 µM

O=C1CCC(N2C(=O)c3ccccc3C2=O)C(=O)N1 (centres undefined) [THALIDOMIDE]
AC50 [2]: > 10 µM
